This passage reports IC50, T/C % and melting point results from patent US8551999B2, “Heterocyclic compound and pharmaceutical composition thereof” (Otsuka Pharmaceutical Co., Ltd., priority 2007, dated 2013).

For data set [1], the system named is human pancreatic cancer cells (HPAC). The experiment in a line: Antiproliferative effect on cancer cells (in vitro), sulforhodamine B method, HPAC. The data set is classed as cell-based. The following applies: 5 days incubation with test compound. How it is done:
(§1) Growth inhibition of human hepatic cancer cells (HuH-7) was determined by the sulforhodamine B method based on the method of Skehan P. et al. (J Natl Cancer Inst. 1990 Jul. 4; 82(13): 1107-12). In the study, HuH-7 cells were seeded on DMEM medium containing 10% fetal bovine serum in a 96-well microplate. After 24-hour incubation at 37° C. in the presence of 5% carbon dioxide, the test compound was added and the cells were incubated for another 5 days. After incubation, a trichloroacetic acid solution was added to yield the final concentration of 10% and the cells were left to stand at 4° C. for 1 hour to fix. Then, the cells were washed with water to remove the medium and trichloroacetic acid and dried in the air. The dried cells were stored at 4° C. until they were stained with sulforhodamine B. To each well, 1% acetic acid solution containing 0.4% sulforhodamine B was added and left to stand for 20 to 30 minutes at room temperature. After discarding the supernatant, each well was washed with 1% acetic acid solution, and 10 mM Tris ([…]) solution was added while stirring to elute the dye taken into the cells. Then, the optical density was determined at the measurement wavelength of 492 nm and the reference wavelength of 690 nm, and the difference was calculated. The cell growth activity in each well was defined as the value determined by subtracting the OD in the control well not containing cells (the difference in absorbance between 492 nm and 690 nm) from that in the test well.
(§2) The 50% inhibitory concentration (IC50 (nM)) of the test compound was determined by comparing the cell growth activity in the well containing the test compound with that of the control not containing the test compound.
The growth inhibition on human pancreatic cancer cells (HPAC) was also determined by the above method using HPAC instead of HuH-7 and RPMI 1640 medium containing 10% fetal bovine serum instead of the DMEM medium containing 10% fetal bovine serum.
A general note: The SRB assay estimates cell density from bound dye.

Data set [2] deals with human hepatic cancer cells (HuH-7). Description: Antiproliferative effect on cancer cells (in vitro), sulforhodamine B method, HuH-7. The data set is classed as cell-based. As to conditions: HuH-7 cells, 5 days incubation with test compound. How it is done:
as §1, §2

Data set [3] relates to Human hepatic cancer cells (HuH-7). Description: Antitumor effect on hepatic cancer cells, HuH-7 (in vivo). As to conditions: SCID mice bearing HuH-7 tumor, 10 mg/kg/day orally, once daily, 9 consecutive days; ratio of relative tumor volume treatment/control. The procedure:
Human hepatic cancer cells (HuH-7) were transplanted in SCID mice (6 females/group) and the inhibitory effect of the invention on their growth was examined. In the study, 0.2 mL of a cell suspension adjusted to contain 2.5×10^7 cells/mL was injected subcutaneously in the right axilla to prepare tumor bearing mice. When the tumor diameter became 5 mm or more, the animals were allocated to groups based on the tumor volume. The test compound was administered orally as a suspension in 5% gum arabic, once daily, for 9 consecutive days. The control group received 5% gum arabic. Tumor volumes were measured on the following day of the last administration. The relative tumor volume was determined by calculating the ratio of the tumor volume on the following day of the last administration to that at group allocation. The ratio of the relative tumor volume in the treatment group to that in the control group (T/C %) was calculated as the index for the effect. Relative tumor volume=Tumor volume on the following day of the last administration/Tumor volume at group allocation. T/C %=(Mean relative tumor volume in the treatment group/Mean relative tumor volume in the control group)×100.

The test system of data set [4] is human chronic myelocytic leukemia cells (KU812). The experiment in a line: Antiproliferative effect on cancer cells (in vitro), WST-8 assay, KU812. The data set is classed as cell-based. The following applies: 5 days incubation with test compound. How it is done: The growth inhibition on human chronic myelocytic leukemia cells (KU812) was determined by a WST-8 assay according to the method of Singh A K, et al. (Cancer Lett. 1996 Oct. 1; 107(1): 109-15.). In this method, KU812 cells were seeded in RPMI 1640 medium containing 10% fetal bovine serum in a 96-well microplate and incubated at 37° C. for 24 hours in the presence of 5% carbon dioxide. Then, the test compound was added and the cells were incubated for another 5 days. After incubation, 15 μL of 5 mM WST-8 (2-(2-methoxy-4-nitrophenyl)-3-(4-nitrophenyl)-5-(2,4-disulfenyl)-2H-tetrazolium, monosodium salt) was added and the cells were incubated for 2 hours. After the 2-hour incubation, 15 μL of 1% SDS (sodium dodecyl sulfate) was added and the optical density was determined at the measurement wavelength of 450 nm and the reference wavelength of 630 nm, and the difference was calculated. The cell growth activity in each well was defined as the value determined by subtracting the OD in the control well not containing cells (the difference in absorbance between 492 nm and 690 nm) from that in the test well.
as §2
On the technique in general: Tetrazolium assays rely on reduction of a dye to a coloured formazan, in cell work by metabolically active cells.

For data set [5], the system named is LI90 cells, a human hepatic stellate cell line. The experiment in a line: Inhibitory effect on collagen synthesis (in vitro). Type of data set: cell-based. The following applies: in the presence of recombinant human TGF-β1, 3H-proline labelled collagen in supernatant. The procedure:
Inhibitory Effect on Collagen Synthesis (In Vitro)
LI90 cells, a human hepatic stellate cell line, were suspended in DMEM (Dulbecco's modified eagle medium) supplemented with 10% inactivated FBS (fetal bovine serum), seeded on a 12-well plate and cultured in a CO2 incubator (preset temperature: 37° C., preset CO2 concentration: 5%). After being cultured for 24 hours, the cells were washed with D-PBS (Dulbecco's phosphate buffered saline), placed in MEM (Eagle's minimum essential medium) supplemented with 0.1% inactivated FBS and then cultured in a CO2 incubator. After being cultured for 3 days, the cells were again washed with D-PBS, placed in MEM (Eagle's minimum essential medium) supplemented with 0.1% inactivated FBS and treated with or without a test compound in the presence of […] recombinant human TGF-β1 (transforming growth factor-β1) in a CO2 incubator for 16 hours. After the incubation, the cells were washed with D-PBS and the medium was replaced with MEM containing 0.25 mM ascorbate. A radio-labeled compound, ^3H-proline, was then added to the culture medium to radio-label the collagen proteins produced. After being cultured for 24 hours, the supernatant was collected and the collagen proteins were extracted from the supernatant as acid-soluble fractions. The amount of collagen produced was determined by measuring the radioactivity contained in the fractions. A concentration of test compound that produced 50% inhibition [IC50 value (nM)] on collagen synthesis was calculated by comparing the radioactivity count in a supernatant of test-compound-treated cells with that of untreated cells (control).

A further data set has as its system STAT3. The experiment in a line: Inhibitory effect on IL-6-induced STAT3 phosphorylation in human myeloma cells (in vitro). As to conditions: U266B1 human myeloma cells, IL-6 1 ng/mL, pSTAT3 (Y705) by flow cytometry. The data set is classed as cell-based. How it is done: The inhibitory effect of the test compound on phosphorylation of STAT3 (signal transducer and activator of transcription-3) in human myeloma cells ([…]) induced by interleukin-6 (IL-6) was examined using the modified method of Tochizawa S. et al. (J Immunol Methods. 2006 Jun. 30; 313(1-2): 29-37). In the study, U266B1 cells were seeded in an RPMI 1640 medium containing 10% fetal bovine serum (FBS) in a 12-well plate and incubated at 37° C. for 2 hours in the presence of carbon dioxide. After incubation, IL-6 was added to yield the concentration of 1 ng/mL and the cells were incubated at 37° C. for 15 minutes in the presence of 5% carbon dioxide. After fixation of the cells by the addition of a buffer containing formaldehyde (Lyse/Fix Buffer, BD Biosciences) at room temperature for 10 minutes, the suspension was centrifuged to remove the supernatant and the cells were treated with ice-cold methanol for 10 minutes to improve the permeability of the cell membrane. The cells were centrifuged to remove methanol and washed twice with Dulbecco's phosphate buffered saline (D-PBS) containing 2% fetal bovine serum (FBS). A fluorescence-labeled anti-phosphorylated STAT3 (pSTAT3) antibody (Alexa Fluor 488-labeled anti-pSTAT3 (Y705) antibody, BD Biosciences) was added for staining in an ice bath for 30 minutes.
The cells were washed once with 2% FBS-containing D-PBS and suspended in 2% FBS-containing D-PBS, and the fluorescence intensity was determined using a flow cytometer (FACS Sort, BD Biosciences). The ratio of fluorescence intensity in the test group to the control group (T/C) was determined from the difference in the geometric mean of pSTAT3 fluorescence intensity between the test compound group of each concentration and the non-stimulated control group according to the following equation by defining the difference in the geometric mean of pSTAT3 fluorescence intensity between the IL-6 induced control and the non-stimulated control as 100%. T/C(%)=([…] of pSTAT3 fluorescence intensity in the cells treated with the test compound—geometric mean of pSTAT3 fluorescence intensity in non-stimulated control)/(geometric mean of fluorescence intensity of IL-6-induced pSTAT3 in the control−geometric mean of pSTAT3 fluorescence intensity in non-stimulated control)×100.
The concentration of the test compound inhibiting phosphorylation of STATS at 50% (IC50; concentration of the test compound corresponding to 50% T/C(%)) was determined using T/C(%) values at the respective concentrations and defined as the index for the inhibitory activity.
Background: Flow cytometry measures light scatter and fluorescence of single cells or particles in a stream.

For `CC(C)Oc1ccc(CN2CCN(C(=O)c3cc4ccc(Oc5ncc(N(C)C(=O)c6ccc(C(F)(F)F)cc6)cn5)cc4n3C)CC2)cc1.Cl` [Example 521, N-(2-{2-[4-(4-Isopropoxybenzyl)piperazine-1-carbonyl]-1-methyl-1H-indol-6-yloxy}pyrimidin-5-yl)-N-methyl-4-trifluoromethyl-benzamide hydrochloride], the IC50 in data set [1] (Homo sapiens, 120 h) is less than 70 nM; in data set [2] (Homo sapiens, 120 h), less than 10 nM; in data set [4] (Homo sapiens, 120 h), less than 2 nM. The T/C % in data set [3] is given as less than 50%.
Regarding `Br.CN(C(=O)c1ccc(OC(F)(F)F)cc1)c1ccc(Oc2ccc3cc(C(=O)N4CCN(Cc5ccc(OC(F)F)cc5)CC4)n(C)c3c2)nc1` [Example 473, N-(6-{2-[4-(4-Difluoromethoxybenzyl)piperazine-1-carbonyl]-1-methyl-1H-indol-6-yloxy}pyridin-3-yl)-N-methyl-4-trifluoro-methoxybenzamide hydrobromide], the half-maximal inhibitory concentration (IC50) in data set [5] was less than 10 nM; in data set [1], less than 70 nM; in data set [2], less than 10 nM; in data set [4], less than 2 nM. Besides, the T/C % in data set [3] is given as less than 50%.
For `Cc1cc(C(F)(F)F)ccc1C(=O)Nc1ccc(Oc2ccc3cc(C(=O)N4CCN(Cc5ccc(OC(CF)CF)cc5)CC4)n(C)c3c2)nc1.Cl` [Example 493, N-[6-(2-{4-[4-(2-Fluoro-1-fluoromethylethoxy)benzyl]piperazine-1-carbonyl}-1-methyl-1H-indol-6-yloxy)pyridin-3-yl]-2-methyl-4-tri-fluoromethylbenzamide hydrochloride], the melting point is 192.5 to 195.4 °C. This compound yielded a 50% inhibitory concentration (IC50) with STAT3 of less than 10 nM. The T/C % in data set [3] is listed as less than 50%.
For `CN(C(=O)c1ccc(C(F)(F)F)cc1)c1ccc(Oc2ccc3c(c2)cc(C(=O)N2CCN(Cc4ccc(OC(F)F)cc4)CC2)n3C)nc1.O=C(O)/C=C\C(=O)O` [Example 401, N-(6-{2-[4-(4-Difluoromethoxybenzyl)piperazine-1-carbonyl]-1-methyl-1H-indol-5-yloxy}pyridin-3-yl)-N-methyl-4-trifluoromethyl-benzamide maleate], the melting point is 146 to 147 °C. The IC50 in data set [5] is less than 10 nM. In data set [1] (Homo sapiens, 120 h), this compound came in with a half-maximal inhibitory concentration (IC50) of less than 70 nM. The half-inhibitory concentration (IC50) in data set [2] (Homo sapiens, 120 h) was less than 10 nM. Moreover, in the data set on STAT3, the IC50 was less than 10 nM. Moreover, the T/C % in data set [3] is less than 50%. In data set [4] (Homo sapiens, 120 h), this compound showed a half-maximal inhibitory concentration (IC50) of less than 2 nM.

As a reminder, the IC50 is the concentration that gives 50% inhibition. One may read the melting point as the temperature of the solid-liquid transition.
